We go through ten compounds from ChEMBL document CHEMBL4257534, “Curcumin-based pyrazoline analogues as selective inhibitors of human monoamine oxidase A” (Medchemcomm, 2018).

The term Ki denotes the dissociation constant of the complex between target and ligand, obtained from inhibition or displacement. Broadly, the Papp is the rate of passage across a membrane or cell layer, normalised by area and donor concentration. Read a high Papp as ready permeation.

In series [1] the target is T1, Amine oxidase [flavin-containing] A (Homo sapiens, UniProt P21397).
T1 sequence (P21397 whole entry): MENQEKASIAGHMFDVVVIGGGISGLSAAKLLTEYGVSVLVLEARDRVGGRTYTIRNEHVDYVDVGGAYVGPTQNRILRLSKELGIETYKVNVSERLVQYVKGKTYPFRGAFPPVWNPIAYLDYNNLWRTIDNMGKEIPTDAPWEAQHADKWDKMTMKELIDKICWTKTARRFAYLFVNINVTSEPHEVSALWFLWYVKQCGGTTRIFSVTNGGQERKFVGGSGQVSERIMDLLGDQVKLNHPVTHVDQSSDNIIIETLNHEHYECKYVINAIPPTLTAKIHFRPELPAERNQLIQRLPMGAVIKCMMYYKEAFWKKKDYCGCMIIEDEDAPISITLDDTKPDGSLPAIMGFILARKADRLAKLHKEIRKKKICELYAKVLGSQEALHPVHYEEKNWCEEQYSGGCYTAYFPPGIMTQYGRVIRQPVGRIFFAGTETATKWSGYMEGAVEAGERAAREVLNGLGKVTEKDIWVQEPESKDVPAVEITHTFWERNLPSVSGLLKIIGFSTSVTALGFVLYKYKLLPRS
The experiment in a line: Inhibition of recombinant human MAO-A assessed as reduction in H2O2 production preincubated for 30 mins followed by p-tyramine substrate addition measured after 30 mins by amplex red reagent based fluorescence assay.

The target of series [2] is T1, Amine oxidase [flavin-containing] A. In words: Reversible inhibition of recombinant human MAO-A assessed as enzyme activity recovery at 5 time Ki value preincubated for 15 mins followed by dilution of enzyme-inhibitor mixture for 24 hrs and subsequent p-tyramine substrate addition by dialysis method.
For series [3] the target is unchanged. The experiment in a line: Competitive inhibition of recombinant human MAO-A assessed as reduction in H2O2 production preincubated for 30 mins followed by p-tyramine substrate addition measured after 30 mins by Lineweaver-Burk plot analysis. The following applies: 0.5 h.
Series [4] shares this target. The experiment in a line: Suicide inhibition of recombinant human MAO-A assessed as reduction in H2O2 production preincubated for 30 mins followed by p-tyramine substrate addition measured after 30 mins by Lineweaver-Burk plot analysis. The following applies: 0.5 h.
Series [5] has the same target. In words: Irreversible inhibition of recombinant human MAO-A at 5 time Ki value preincubated for 15 mins followed by dilution of enzyme-inhibitor mixture for 24 hrs and subsequent p-tyramine substrate addition by dialysis method.
A short description of series [6]: Cytotoxicity against human HepG2 cells assessed as cell viability at 1 uM after 24 hrs by MTT assay relative to control. Format: cell-based. The following applies: read-out: Activity. A general note: Tetrazolium dyes change colour on reduction, which living cells bring about.
The species entered for the next series is Homo sapiens. The experiment in a line: Selectivity index, ratio of Ki for recombinant human MAO-B to Ki for recombinant human MAO-A.
The nature of series [7]: Cytotoxicity against human HepG2 cells assessed as cell viability at 25 uM after 24 hrs by MTT assay relative to control. Format: cell-based. As to conditions: read-out: Activity; call rule not given here.
For series [8], the target named is T2, Amine oxidase [flavin-containing] B (Homo sapiens, UniProt P27338).
T2 sequence (P27338 whole entry): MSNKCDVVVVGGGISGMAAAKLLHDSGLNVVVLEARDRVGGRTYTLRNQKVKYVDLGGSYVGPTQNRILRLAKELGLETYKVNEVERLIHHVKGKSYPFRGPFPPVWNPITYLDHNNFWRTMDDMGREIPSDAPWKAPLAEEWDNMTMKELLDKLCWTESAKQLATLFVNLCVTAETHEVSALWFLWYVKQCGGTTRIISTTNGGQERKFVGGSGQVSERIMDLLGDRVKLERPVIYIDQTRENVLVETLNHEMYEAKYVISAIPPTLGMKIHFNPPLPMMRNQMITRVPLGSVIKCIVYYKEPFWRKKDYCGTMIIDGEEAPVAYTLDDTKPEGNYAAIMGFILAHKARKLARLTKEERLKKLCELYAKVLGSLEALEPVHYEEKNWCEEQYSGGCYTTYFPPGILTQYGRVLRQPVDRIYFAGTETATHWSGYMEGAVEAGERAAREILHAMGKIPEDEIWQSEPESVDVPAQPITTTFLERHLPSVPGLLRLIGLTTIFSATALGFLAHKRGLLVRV
Description: Inhibition of recombinant human MAO-B assessed as reduction in H2O2 production preincubated for 30 mins followed by p-tyramine substrate addition measured after 30 mins by amplex red reagent based fluorescence assay

Series [9] is described as follows: Cytotoxicity against human HepG2 cells assessed as cell viability at 5 uM after 24 hrs by MTT assay relative to control. Type of series: cell-based. As to conditions: read-out: Activity.
The nature of a further series: in vitro. As to conditions: PAMPA. A general note: In PAMPA a lipid-coated filter parts donor from acceptor wells.

Description for in vitro: Permeability of the compound at 50 ug/ml after 16 hrs by PAMPA

With `NCCNC(=O)c1ccc(Cl)cn1` [LAZABEMIDE], the inhibition constant Ki in series [1] amounted to 7900 µM. Moreover, the “inhibition (INH)” value in [2] and in [3] was “Active” in each case.
With `C#CCN(C)[C@H](C)Cc1ccccc1` [SELEGILINE], the “inhibition (INH)” value in [4] and in series [5] was “Active” in each case.
`COc1cc(C2=NN(C(=O)Oc3ccccc3)C(c3ccc(Cl)cc3)C2)ccc1O` (configuration not stated): the values for the Ki in [1] and in [8] were 193 µM and 5770 µM, respectively. The viability at 24 h, 1 µM in series [6] came to 93.1%. Further, in the series listed under Homo sapiens, the Ratio Ki is 29.9. Moreover, in series [7], the viability at 24 h, 25 µM is 77%. In addition, the viability at 24 h, 5 µM in series [9] amounted to 81.7%. The “inhibition (INH)” value in series [2] and in series [3] was “Active” throughout.
Take `COc1cc(C2=NNC(c3ccc(Cl)cc3)C2)ccc1O` (configuration not stated): the inhibition constant (Ki) in [1] was 0.08 µM; in series [8], 140 µM. Moreover, the viability at 24 h, 1 µM in [6] was 99%. Moreover, the Ratio Ki in the series listed under Homo sapiens is 1750. Besides, the viability at 24 h, 25 µM in [7] was 90.2%. In addition, the Papp at 16 h, 50 ug/ml in “in vitro” was 13.9 ×10⁻⁶ cm/s. In addition, the viability at 24 h, 5 µM in series [9] is 94.5%. Besides, the “inhibition (INH)” value in series [2] and in series [3] was “Active” in each case.
Consider `COc1cc(C2=NN(C(=S)Nc3ccccc3)C(c3ccc(Cl)cc3)C2)ccc1O` (configuration not stated), for which the Ki in series [1] came to 19.6 µM; in series [8], 4770 µM. Also, the viability at 24 h, 1 µM in [6] was 95%. Moreover, in the series listed under Homo sapiens, the Ratio Ki was found to be 244. Also, in series [7], the viability at 24 h, 25 µM worked out at 80.3%. In “in vitro”, this compound came in with a Papp at 16 h, 50 ug/ml of 9.55 ×10⁻⁶ cm/s. The viability at 24 h, 5 µM in series [9] amounted to 88.2%. Further, the “inhibition (INH)” value in series [2] and in [3] was “Active” each time.
Regarding `C[C@]12CC[C@@H]3c4ccc(O)cc4CC[C@H]3[C@@H]1CC[C@@H]2O` [ESTRADIOL], the Papp at 16 h, 50 ug/ml in the series “in vitro” is 11.8 ×10⁻⁶ cm/s.
Regarding `COc1cc(C2=NN(C(=O)c3ccccc3)C(c3ccc(Cl)cc3)C2)ccc1O` (configuration not stated), the inhibition constant Ki in [1] is 26.2 µM; in series [8] it was 6000 µM. For the same compound, the viability at 24 h, 1 µM in [6] was found to be 90%. For the same compound, the Ratio Ki in the series listed under Homo sapiens was 229. The viability at 24 h, 25 µM in [7] turned out to be 78.2%. In series [9], the viability at 24 h, 5 µM worked out at 86.3%. Moreover, the “inhibition (INH)” value in [2] and in series [3] was “Active” in each case.
Turning to `O=C(NCCN1CCOCC1)c1ccc(Cl)cc1` [MOCLOBEMIDE], the “inhibition (INH)” value in series [2] and in [3] was “Active” each time.
In the series “in vitro”, `CCn1cc(C(=O)O)c(=O)c2cc(F)c(N3CCNC(C)C3)c(F)c21` (configuration not stated) [LOMEFLOXACIN] came in with a Papp at 16 h, 50 ug/ml of 1.24 ×10⁻⁶ cm/s.
Regarding `COc1cc(C2=NN(S(=O)(=O)c3ccc(C)cc3)C(c3ccc(Cl)cc3)C2)ccc1O` (configuration not stated), the Ki in [1] is 40 µM; in series [8], 6000 µM. For the same compound, the viability at 24 h, 1 µM in series [6] turned out to be 91.2%. Besides, the Ratio Ki in the series listed under Homo sapiens amounted to 150. Moreover, the viability at 24 h, 25 µM in series [7] was determined as 64.1%. The same compound returned a Papp at 16 h, 50 ug/ml in the series “in vitro” of 12 ×10⁻⁶ cm/s. Further, in series [9], the viability at 24 h, 5 µM was found to be 79.5%. In addition, the “inhibition (INH)” value in series [2] and in series [3] was “Active” in each case.
